What all share (assay type): cell-based
In assay [1] the target is T1, GSPT1 (Homo sapiens (Human), UniProt P15170+Q96SW2). Put plainly: immunofluorescence assay for GSPT1 degradation in CAL-51 cells (Example 4). In outline:
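CAL-51 cells on fibronectin-coated plates were treated 6 h with serial dilutions (30 μM to 0.1 nM), then fixed and immunostained for GSPT1 with DAPI and phalloidin counterstains. Per-cell mean GSPT1 intensity from high-content imaging, normalized to controls; DC50 by non-linear regression.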
Target sequence in this assay (P15170 whole entry): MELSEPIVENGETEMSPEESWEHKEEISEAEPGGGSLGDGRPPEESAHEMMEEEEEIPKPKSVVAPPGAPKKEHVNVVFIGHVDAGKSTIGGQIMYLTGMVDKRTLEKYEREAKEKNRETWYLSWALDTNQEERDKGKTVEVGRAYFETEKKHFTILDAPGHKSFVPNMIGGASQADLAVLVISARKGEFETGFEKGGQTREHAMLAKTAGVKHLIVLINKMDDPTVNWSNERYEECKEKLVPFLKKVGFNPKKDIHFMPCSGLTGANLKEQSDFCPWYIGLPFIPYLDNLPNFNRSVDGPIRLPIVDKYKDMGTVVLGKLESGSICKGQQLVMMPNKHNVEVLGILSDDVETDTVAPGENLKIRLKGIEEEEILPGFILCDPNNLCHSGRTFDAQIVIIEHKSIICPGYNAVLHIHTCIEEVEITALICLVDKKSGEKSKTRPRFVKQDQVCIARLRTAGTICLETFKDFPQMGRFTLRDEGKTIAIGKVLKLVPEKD
Target sequence in this assay (Q96SW2 whole entry): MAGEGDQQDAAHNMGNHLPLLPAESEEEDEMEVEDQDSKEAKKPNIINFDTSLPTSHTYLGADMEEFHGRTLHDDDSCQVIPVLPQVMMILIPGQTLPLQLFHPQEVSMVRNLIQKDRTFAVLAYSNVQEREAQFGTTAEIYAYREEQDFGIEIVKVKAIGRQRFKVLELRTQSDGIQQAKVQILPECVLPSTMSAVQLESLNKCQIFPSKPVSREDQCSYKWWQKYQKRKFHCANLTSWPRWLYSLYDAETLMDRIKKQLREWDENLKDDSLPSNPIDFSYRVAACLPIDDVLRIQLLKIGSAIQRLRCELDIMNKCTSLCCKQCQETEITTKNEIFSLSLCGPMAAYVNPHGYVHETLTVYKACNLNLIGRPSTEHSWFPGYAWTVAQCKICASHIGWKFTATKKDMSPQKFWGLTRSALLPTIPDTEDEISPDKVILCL
Target sequence in this assay (Q16531 2-1140 partner): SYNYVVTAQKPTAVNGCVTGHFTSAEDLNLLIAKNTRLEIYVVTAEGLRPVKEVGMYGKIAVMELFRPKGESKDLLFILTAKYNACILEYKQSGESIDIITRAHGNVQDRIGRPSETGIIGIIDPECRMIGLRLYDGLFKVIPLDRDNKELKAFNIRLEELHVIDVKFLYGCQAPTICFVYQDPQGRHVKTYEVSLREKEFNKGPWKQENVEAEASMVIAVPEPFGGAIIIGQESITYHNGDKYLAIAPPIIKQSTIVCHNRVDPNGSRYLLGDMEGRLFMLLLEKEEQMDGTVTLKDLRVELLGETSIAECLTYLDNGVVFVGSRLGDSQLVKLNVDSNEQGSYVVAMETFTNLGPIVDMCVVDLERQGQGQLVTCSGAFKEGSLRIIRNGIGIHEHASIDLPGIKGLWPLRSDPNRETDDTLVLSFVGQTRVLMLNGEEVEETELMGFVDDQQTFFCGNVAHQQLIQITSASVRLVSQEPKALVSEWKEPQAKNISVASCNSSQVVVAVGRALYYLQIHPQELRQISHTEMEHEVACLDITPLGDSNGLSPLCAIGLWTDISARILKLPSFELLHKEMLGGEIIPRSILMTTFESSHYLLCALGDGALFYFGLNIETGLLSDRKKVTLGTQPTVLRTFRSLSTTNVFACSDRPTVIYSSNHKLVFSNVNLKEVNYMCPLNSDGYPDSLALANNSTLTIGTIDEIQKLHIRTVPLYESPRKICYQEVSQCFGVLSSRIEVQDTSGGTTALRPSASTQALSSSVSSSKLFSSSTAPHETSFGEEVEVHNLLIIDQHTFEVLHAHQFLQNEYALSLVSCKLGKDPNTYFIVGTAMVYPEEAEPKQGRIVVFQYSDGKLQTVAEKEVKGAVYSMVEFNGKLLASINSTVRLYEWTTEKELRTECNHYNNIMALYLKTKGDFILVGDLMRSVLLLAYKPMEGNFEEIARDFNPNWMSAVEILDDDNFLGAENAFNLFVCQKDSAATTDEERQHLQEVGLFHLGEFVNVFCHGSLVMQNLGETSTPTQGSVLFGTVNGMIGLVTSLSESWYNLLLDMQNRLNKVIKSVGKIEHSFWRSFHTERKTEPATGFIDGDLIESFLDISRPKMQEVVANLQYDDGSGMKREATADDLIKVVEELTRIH

For assay [2], the target named is T1, GSPT1. Put plainly: selectivity by Western blot in MM1S cells, GSPT1. The conditions noted are these: for GSPT1 degradation: MM1S cells, 6 hours, 0.3, 3 and 30 μM. On the procedure: (§1) MM1S cells were purchased from ATCC (cat. Number CRL-2974), sub-cultured in 90% RPMI 1640 with 10% FBS, supplemented with 1× P/S and incubated at 37° C., 5% CO2. Compounds were stored as 10 mM DMSO stock. For the assay, MM1S cells (3 million cells/well) were plated in 6-well plates and incubated over night. Cells were treated with respective compounds using a serial dilution: 0.3 μM, 3 μM and 30 μM as well as a vehicle only (DMSO) control for 6 hours. Media with suspension cells was subsequently transferred to 15 mL conical tubes, wells rinsed twice with ice-cold PBS and merged with cell suspension in respective 15 mL conical tube. Cells were spinned down, supernatant aspirated, pellets resuspended in ice-cold PBS and transferred to microtubes. Cells were spinned down, supernatant aspirated and pellets resuspended in 120 μL RIPA lysis buffer supplemented with protease and phosphatase inhibitors. Cell lysates were incubated on ice for 20 minutes followed by centrifugation at >20,000 xg for 5 min. Supernatants were transferred to fresh microtubes and stored at −80° C. Total protein concentration was determined using a BCA assay with a BSA standard curve and concentration of all samples was adjusted to 1 mg/mL. 25 μL 4× LDS sample buffer supplemented with 100 mM DTT was added to 75 μL sample. Samples were centrifuged (8,000 xg, 1 min) and incubated at 95° C. for 5 min followed by another centrifugation step (8,000 xg, 1 min). 20 μL of each sample was loaded on a 4-12% gel alongside a protein molecular weight marker. Gels were run in the presence of MOPS buffer at 80 Volts for 30 min, followed by 120 Volts for 1.5 h and proteins subsequently transferred onto nitrocellulose membranes at 20 Volts for 7 min using an iBlot2 Gel Transfer Device. Membranes were then cut horizontally into two pieces, covering 80-50 kDa and 50-25 kDa. Blocking the membranes was performed by gently shaking in 5% (w/v) skim milk in TSB-T for 1 hr at room temperature. All primary antibodies were used at a 1/1000 in 5% (w/v) BSA dissolved in TBST and incubated with membranes over night at 4° C. Anti-IKZF1 (Ikaros; D6N9Y; 14859S), anti-IKZF3 (Aiolos; D1C1E; 15103S) antibodies were purchased from Cell Signalling Technology, anti-ZFP91 antibody from Bethyl laboratories, anti-GSPT1 from Sigma Aldrich (HPA052488) and anti CK1alpha from AbCam (ab206652). After three washes with 1× TBST for 5 min, HRP-coupled secondary antibodies diluted in 5% (w/v) BSA/TBST (Goat Anti-Rb IgG, dil. 1/10,000; Goat Anti-Mouse IgG, dil. 1/5000) were added for 1 hr at room temperature. After three washes with 1× TBST (5 minutes each), membranes were incubated with ECL reagent for 1 min at room temperature. Chemiluminescence signals were then detected using a LAS-4000 system with default settings and signals quantified using Image Studio Lite software (version 5.2). Membrane parts previously incubated with antibody against CK1alpha were stripped off antibodies by incubating with stripping buffer for 30 minutes followed by three washed with TBST (5 min each), blocking with 5% (w/v) skim milk for 1 hr, and incubation with primary antibody against GAPDH overnight at 4° C. Subsequent washes, incubation with secondary antibody and signal acquisition were performed as described above.
Background: A western blot detects proteins with antibodies after separation by electrophoresis.
Target sequence in this assay (P15170 whole entry, looked up): as the sequence (P15170 whole entry) above
Target sequence in this assay (Q96SW2 whole entry, looked up): as the sequence (Q96SW2 whole entry) above
Target sequence in this assay (Q16531 whole entry partner, looked up): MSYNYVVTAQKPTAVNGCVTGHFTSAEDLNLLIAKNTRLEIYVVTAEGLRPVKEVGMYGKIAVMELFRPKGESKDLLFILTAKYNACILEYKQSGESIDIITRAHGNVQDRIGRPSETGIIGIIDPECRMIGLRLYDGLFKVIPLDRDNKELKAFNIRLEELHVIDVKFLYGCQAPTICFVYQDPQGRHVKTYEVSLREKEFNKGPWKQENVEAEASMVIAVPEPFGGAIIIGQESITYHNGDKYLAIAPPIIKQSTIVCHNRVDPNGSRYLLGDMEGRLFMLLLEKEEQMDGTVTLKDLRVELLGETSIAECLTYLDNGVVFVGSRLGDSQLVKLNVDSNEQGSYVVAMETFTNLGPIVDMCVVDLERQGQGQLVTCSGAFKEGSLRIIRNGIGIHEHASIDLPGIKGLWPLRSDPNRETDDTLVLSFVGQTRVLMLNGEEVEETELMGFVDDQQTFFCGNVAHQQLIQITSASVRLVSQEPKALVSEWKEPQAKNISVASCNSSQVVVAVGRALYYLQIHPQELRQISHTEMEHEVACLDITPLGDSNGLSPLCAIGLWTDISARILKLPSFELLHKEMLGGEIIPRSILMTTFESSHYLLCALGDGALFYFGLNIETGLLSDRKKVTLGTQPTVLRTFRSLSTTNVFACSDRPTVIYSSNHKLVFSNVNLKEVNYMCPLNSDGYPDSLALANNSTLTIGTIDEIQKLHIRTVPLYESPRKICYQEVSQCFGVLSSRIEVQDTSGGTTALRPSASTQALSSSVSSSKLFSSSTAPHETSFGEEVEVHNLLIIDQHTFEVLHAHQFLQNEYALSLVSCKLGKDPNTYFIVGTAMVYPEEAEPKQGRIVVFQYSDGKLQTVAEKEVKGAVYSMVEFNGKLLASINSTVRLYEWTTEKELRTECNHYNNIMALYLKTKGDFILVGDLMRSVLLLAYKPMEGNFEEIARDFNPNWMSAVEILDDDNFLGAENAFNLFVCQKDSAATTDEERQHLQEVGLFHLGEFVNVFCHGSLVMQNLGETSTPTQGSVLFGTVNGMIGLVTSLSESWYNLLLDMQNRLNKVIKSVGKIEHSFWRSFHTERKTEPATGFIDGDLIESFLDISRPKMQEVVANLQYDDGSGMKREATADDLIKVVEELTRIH

Assay [3] has as its target CK1alpha (Homo sapiens (Human), UniProt P48729). Put plainly: selectivity by Western blot in MM1S cells, CK1alpha. On the set-up: key to CK1alpha degradation: A represents a no degradation observed at 30 μM; B represents trace degradation at 30 μM (below 20%); C represents weak degradation at 30 μM (below 50%); D represents degradation at 30 μM (>90%); E represents degradation at 3 μM (>90%); F represents degradation at 0.3 μM (>90%). The conditions noted are these: for CK1alpha degradation: MM1S cells, 6 hours, 0.3, 3 and 30 μM. As to the method: as §1

Where [4] appears, read: 6 hours, read-out: Activity for GSPT1 degradation, Code (DC50).
Where [5] appears, read: GSPT1 degradation, read-out: DC50 value.

Here are results for five molecules from patent US11912682B2, “Isoindolinone compounds” (Monte Rosa Therapeutics, Inc., priority 2021, dated 2024).

Structures are written as SMILES. Where two headings read alike, the source gives them in different places.

Sequence of CK1alpha (P48729 whole entry, looked up): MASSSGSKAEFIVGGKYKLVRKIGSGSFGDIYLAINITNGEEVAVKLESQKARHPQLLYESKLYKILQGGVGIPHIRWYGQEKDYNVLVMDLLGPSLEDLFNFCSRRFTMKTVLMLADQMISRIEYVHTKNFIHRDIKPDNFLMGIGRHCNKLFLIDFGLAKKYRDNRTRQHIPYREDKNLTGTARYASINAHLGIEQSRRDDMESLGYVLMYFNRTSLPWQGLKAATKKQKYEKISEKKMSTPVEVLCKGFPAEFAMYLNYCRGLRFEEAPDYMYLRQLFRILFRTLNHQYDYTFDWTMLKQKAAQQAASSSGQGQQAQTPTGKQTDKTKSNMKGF

What is called DC50 is the concentration giving 50% degradation. In the case of `CC(C)(C)c1ccc(NC(=O)OCc2ccc3c(c2)C(=O)N(C2CCC(=O)NC2=O)C3)cn1` (stereo not shown) [Compound 43], the DC50 was below 30 nM in assay [1] (setting [4]) and at most 30 nM in assay [1] (setting [5]). Moreover, the GSPT1 degradation entry in assay [2] is reported as “F (F represents degradation at 0.3 μM (>90%))”. For the same molecule, in assay [3], the CK1alpha degradation entry is reported as “C (C represents weak degradation at 30 μM (below 50%))”.

On to `Cc1ncc(NC(=O)OCc2ccc3c(c2)C(=O)N(C2CCC(=O)NC2=O)C3)cc1Cl` (stereo not shown) [Compound 6], for which the figures for the DC50 in assay [1] (setting [4]) and in assay [1] (setting [5]) were below 30 nM and at most 30 nM, respectively. For the same molecule, the GSPT1 degradation entry in assay [2] was “F (F represents degradation at 0.3 μM (>90%))”. Moreover, the CK1alpha degradation entry in assay [3] was “A”.

Regarding `Cc1ccc(NC(=O)OCc2ccc3c(c2)C(=O)N(C2CCC(=O)NC2=O)C3)cc1Cl` (stereo not shown) [Compound 10], the DC50 in assay [1] (setting [4]) is below 30 nM; in assay [1] (setting [5]), at most 30 nM. Further, the GSPT1 degradation entry in assay [2] is “D (D represents degradation at 30 μM (>90%))”. In addition, the “GSPT1 degradation (FIG. 1A)” value in assay [2] (cells treated at 0.3 μM) is listed as “complete GSPT1 degradation”. Further, the CK1alpha degradation entry in assay [3] is reported as “B (B represents trace degradation at 30 μM (below 20%))”. In addition, in assay [3] (highest concentration tested of 30 μM), the “CK1alpha degradation (FIG. 1A)” value is listed as “none of the known the substrates IKZF1, IKZF3, SALL4, CK1alpha was degraded”.

On to `O=C1CCC(N2Cc3ccc(COC(=O)Nc4ccc(-c5ccccc5)nc4)cc3C2=O)C(=O)N1` (stereo not shown) [Compound 42], for which the DC50 was below 30 nM in assay [1] (setting [4]) and at most 30 nM in assay [1] (setting [5]). Besides, in assay [2], the GSPT1 degradation result is “F (F represents degradation at 0.3 μM (>90%))”. The CK1alpha degradation result in assay [3] is “B (B represents trace degradation at 30 μM (below 20%))”.

Take `O=C1CCC(N2Cc3ccc(COC(=O)Nc4ccc(N5CCCCC5)nc4)cc3C2=O)C(=O)N1` (stereo not shown) [Compound 15]: the DC50 in assay [1] (setting [4]) was below 30 nM; in assay [1] (setting [5]) it was at most 30 nM. Moreover, the GSPT1 degradation entry in assay [2] is “F (F represents degradation at 0.3 μM (>90%))”. Moreover, the CK1alpha degradation entry in assay [3] is recorded as “C (C represents weak degradation at 30 μM (below 50%))”.
